This passage reports IC50 results from ChEMBL document CHEMBL5726766, “Sulfonamide compounds as voltage-gated sodium channel modulators” (2019).

Molecules are shown by their SMILES.

A short description of experiment [1]: (§1) Membrane potential dye assay: HEK-293 cells overexpressing the channel of interest were seeded in a 96-well plate at a density of 30000 cells/well and incubated at 37° C./5% CO2 for 48 hr. The assay was carried out using the Red Membrane Potential Dye (Molecular Devices) following the manufacturer's instructions. Briefly, the cells were incubated with 1× red membrane potential dye for 1.5 hour. The cells were then treated with various concentrations of the test compounds for 15-20 min followed by depolarization with 10-30 μM Veratridine. The fluorescence was read following excitation at 510-545 nm and emission at 565-625 nm in FLIPR. The “max-min” fluorescence values were used to calculate the % inhibition. The settings on record: HEK293.

The nature of experiment [2]: as §1. The conditions noted are these: HEK293. The source holds these as a separate data set.

For `O=S(=O)(Nc1ncccn1)c1ccc2c(c1)OCC[C@H]2c1ccc(C(F)(F)F)cc1O[C@H]1CCOC1`, the IC50 (as a rule, the concentration needed to halve the response being measured) in experiment [1] is over 10000 nM; in experiment [2], 149 nM.
`O=S(=O)(Nc1cccc(F)n1)c1ccc2c(c1)OCC[C@@H]2c1ccc(C(F)(F)F)cc1O[C@H]1CCOC1`: the 50% inhibitory concentration (IC50) in experiment [2] was 0.9 nM.
With `O=S(=O)(Nc1ncccn1)c1ccc2c(c1)OCC[C@@H]2c1ccc(C(F)(F)F)cc1O[C@@H]1CCOC1`, the IC50 in experiment [1] was over 10000 nM; in experiment [2], 1020 nM.
With `O=S(=O)(Nc1cccc(F)n1)c1ccc2c(c1)OCC[C@H]2c1ccc(C(F)(F)F)cc1O[C@H]1CCOC1`, the half-inhibitory concentration (IC50) in experiment [1] is over 10000 nM; in experiment [2], 831 nM.
Turning to `O=S(=O)(Nc1ncc(F)cn1)c1ccc2c(c1)OCC[C@@H]2c1ccc(C(F)(F)F)cc1-c1nccs1`, the IC50 was over 10000 nM in experiment [1] and 11 nM in experiment [2].
On the same counts, the results for `Cc1nc(-c2cc(C(F)(F)F)ccc2[C@@H]2CCOc3cc(S(=O)(=O)Nc4ncc(F)cn4)ccc32)cs1` are over 10000 nM and 16 nM.
Regarding `O=S(=O)(Nc1ncccn1)c1ccc2c(c1)OCC[C@@H]2c1ccc(C(F)(F)F)cc1O[C@H]1CCOC1`, the IC50 in experiment [2] is 38 nM.
In the case of `O=S(=O)(Nc1ncccn1)c1ccc2c(c1)OCC[C@H]2c1ccc(C(F)(F)F)cc1O[C@@H]1CCOC1`, the concentration for half-maximal inhibition (IC50) in experiment [2] is 83 nM.
Turning to `Cc1nc(-c2cc(C(F)(F)F)ccc2[C@H]2CCOc3cc(S(=O)(=O)Nc4ncc(F)cn4)ccc32)cs1`, the IC50 in experiment [1] is over 10000 nM; in experiment [2], 8 nM.
Regarding `O=S(=O)(Nc1ncccn1)c1ccc2c(c1)OCC[C@H]2c1ccc(C(F)(F)F)cc1OCCCF`, the 50% inhibitory concentration (IC50) in experiment [1] and in experiment [2] was over 10000 nM in each case.
On to `O=S(=O)(Nc1ncc(F)cn1)c1ccc2c(c1)OCC[C@H]2c1ccc(C(F)(F)F)cc1-c1nccs1`, for which the 50% inhibitory concentration (IC50) in experiment [1] was over 10000 nM; in experiment [2], 1120 nM.
As for `O=S1(=O)CCN(c2cc(C(F)(F)F)ccc2[C@H]2CCOc3cc(S(=O)(=O)Nc4ccncn4)ccc32)CC1` (racemic), the IC50 in experiment [1] is over 10000 nM.
As to `O=S1(=O)CCN(c2cc(C(F)(F)F)ccc2[C@H]2CCOc3cc(S(=O)(=O)Nc4cccc(F)n4)ccc32)CC1` (racemic), the IC50 in experiment [1] is over 10000 nM.
With `O=S1(=O)CCN(c2cc(C(F)(F)F)ccc2[C@H]2CCOc3cc(S(=O)(=O)Nc4ncc(F)cn4)ccc32)CC1` (racemic), the half-inhibitory concentration (IC50) in experiment [1] is over 10000 nM.
For the compound `O=S1(=O)CCN(c2cc(C(F)(F)F)ccc2[C@H]2CCOc3cc(S(=O)(=O)Nc4cccnn4)ccc32)CC1` (racemic), the IC50 in experiment [1] was over 10000 nM.
With `O=C1OCCN1c1cc(C(F)(F)F)ccc1[C@H]1CCOc2cc(S(=O)(=O)Nc3ncc(F)cn3)ccc21` (racemic), the 50% inhibitory concentration (IC50) in experiment [1] is over 10000 nM.
Turning to `O=S(=O)(Nc1ncc(F)cn1)c1ccc2c(c1)OCC[C@@H]2c1ccc(C(F)(F)F)cc1CCC(F)F` (racemic), the IC50 in experiment [1] is over 10000 nM.
For the compound `O=S(=O)(Nc1ncc(F)cn1)c1ccc2c(c1)OCC[C@@H]2c1ccc(C(F)(F)F)cc1OC1COC1` (racemic), in experiment [1], the concentration for half-maximal inhibition (IC50) was over 10000 nM.
Turning to `O=C1OCCN1c1cc(C(F)(F)F)ccc1[C@H]1CCOc2cc(S(=O)(=O)Nc3cccc(F)n3)ccc21` (racemic), the IC50 in experiment [1] is over 10000 nM.
